From the supplement of paper PMC8633005

Legend:
Assay in all cases: drug sensitivity score (DSS) (DSS (unitless, 0-50 scale)); higher = more sensitive (stronger viability inhibition); extreme values may be limits of the assay
Details in all cases: 72 h; culture: 2D
SK-MEL-28 = test system: SK-MEL-28
Summary of the method: (§1)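 Patient-derived melanoma cultures (1000–1500 cells per well) and melanoma cell lines were grown in 2D in 384-well plates holding a 527-compound oncology library. Each compound was dissolved in DMSO or water and tested at five concentrations spanning a 10,000-fold range. After 72 h at 37 °C, viability was read by CellTiter-Glo luminescence. A drug sensitivity score, a modified area-under-curve measure, was derived from dose-response curves fitted in the in-house Breeze software.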

WM165 = test system: WM165
Summary of the method: as §1

FM-MEL-2 = test system: FM-MEL-2
Summary of the method: as §1

FM-MEL-3 = test system: FM-MEL-3
Summary of the method: as §1

FM-MEL-6 = test system: FM-MEL-6
Summary of the method: as §1

WM852 = test system: WM852
Summary of the method: as §1

Bowes = test system: Bowes
Summary of the method: as §1

SK-MEL-2 = test system: SK-MEL-2
Summary of the method: as §1

SMILES	drug sensitivity score (SK-MEL-28)	drug sensitivity score (WM165)	drug sensitivity score (FM-MEL-2)	drug sensitivity score (FM-MEL-3)	drug sensitivity score (FM-MEL-6)	drug sensitivity score (WM852)	drug sensitivity score (Bowes)	drug sensitivity score (SK-MEL-2)
CON(C)C(=O)N1N=C(c2cc(F)ccc2F)S[C@@]1(CCCN)c1ccccc1 [Filanesib]	4.5	17.4	4.7	10	11.3	23.3	12.5	16.5
O=C(Nc1nc2cccc(-c3ccc(CN4CCS(=O)(=O)CC4)cc3)n2n1)C1CC1 [Filgotinib]	0	0.7	0	0	4.5	5.9	4.5	0
CC(C)(C)NC(=O)[C@H]1CC[C@H]2[C@@H]3CC[C@H]4NC(=O)C=C[C@]4(C)[C@H]3CC[C@]12C [Finasteride]	0	0	0	0	0	0	0	0
CCCCCCCCc1ccc(CCC(N)(CO)CO)cc1 [Fingolimod]	6.2	6.3	6.2	7.5	6.4	7	8.5	5.7
O=c1[nH]c(=O)n([C@H]2C[C@H](O)[C@@H](CO)O2)cc1F [Floxuridine]	8	18.4	0.4	0	1.2	4.9	15.7	0
Nc1nc(F)nc2c1ncn2[C@@H]1O[C@H](CO)[C@@H](O)[C@@H]1O [Fludarabine]	1.1	0	1.4	0.6	3.1	0	0	4.7
O=c1[nH]cc(F)c(=O)[nH]1 [Fluorouracil]	0.7	2.3	1.7	0.4	0.7	0	0	0
CC(C)C(=O)Nc1ccc([N+](=O)[O-])c(C(F)(F)F)c1 [Flutamide]	0	0	0	0.5	0	0.5	0.1	0
COc1cc2c(Oc3ccc(NC(=O)C4(C(=O)Nc5ccc(F)cc5)CC4)cc3F)ccnc2cc1OCCCN1CCOCC1 [Foretinib]	2.6	2.6	3.1	3.2	0.9	2.2	5.1	0
COc1cc(Nc2ncc(F)c(Nc3ccc4c(n3)N(COP(=O)(O)O)C(=O)C(C)(C)O4)n2)cc(OC)c1OC [Fostamatinib]	2	3.5	4.6	2.1	1.9	0.5	2	0
C[C@]12CC[C@@H]3c4ccc(O)cc4C[C@@H](CCCCCCCCC[S+]([O-])CCCC(F)(F)C(F)(F)F)[C@H]3[C@@H]1CC[C@@H]2O (stereo partly specified) [Fulvestrant]	0	0	0	0	0	0	0	0
CC1(C)OCCn2c1nc1c(N3CCOCC3)nc(-c3cnc(N)nc3)nc12 [GDC-0084]	7.7	8.4	9.6	8.4	7.8	7.7	9.4	8.1
O=C(NOCCO)c1ccc2cncn2c1Nc1ccc(I)cc1F [GDC-0623]	8.9	7.6	16.5	8.9	6.2	2.4	1.4	16.8
C[C@H]1CN(C2COC2)CCN1c1ccc(Nc2cc(-c3ccnc(N4CCn5c(cc6c5CC(C)(C)C6)C4=O)c3CO)cn(C)c2=O)nc1 [GDC-0853]	0	0	0	0	0	0	0	0
O[C@H](C[C@H]1c2c(F)cccc2-c2cncn21)[C@H]1CC[C@H](O)CC1 [GDC-0919]	0.5	0	0.4	0.7	1.1	1.2	0.3	0
CNc1nc(Nc2cn(C(C)(C)C#N)nc2C)ncc1C(F)(F)F [GNE-0877]	0	0	0	0	0	0	0	0
CCNc1nc(Nc2cc(F)c(C(=O)N3CCOCC3)cc2OC)ncc1C(F)(F)F [GNE-7915]	0	0	0	2.6	0	0	0	0
CCCc1cc(C)[nH]c(=O)c1CNC(=O)c1cc(-c2ccnc(N3CCN(C)CC3)c2)cc2c1cnn2C(C)C [GSK343]	0	0	0.1	0.2	0	0	0	0.1
CCCOc1ccn2c(C(C)=O)cc(-c3ccccc3S(C)(=O)=O)c2c1 [GSK2801]	0	0	0.1	0	0	0	0.7	0
CCOC(=O)CCNc1cc(N2CCc3ccccc3CC2)nc(-c2ccccn2)n1 [GSK-J4]	0	3.2	1	20.9	1.3	2.3	11.2	0
C[C@@H]1C=C2C(=O)O[C@@H]3CC[C@H](C1)[C@]23O [Galiellalactone]	5.8	6.9	2.9	5.2	0.7	5.1	8.4	0

SMILES	drug sensitivity score (SK-MEL-28)	drug sensitivity score (WM165)	drug sensitivity score (FM-MEL-2)	drug sensitivity score (FM-MEL-3)	drug sensitivity score (FM-MEL-6)	drug sensitivity score (WM852)	drug sensitivity score (Bowes)	drug sensitivity score (SK-MEL-2)
Cc1cccc(-c2nn3c(c2-c2ccnc4ccc(C(N)=O)cc24)CCC3)n1 [Galunisertib]	0	0	0	0	0	0	0	0
Cc1cc(Nc2cc(CN3CCOCC3)c3nc(C)c(Cc4ccc(Cl)cc4F)n3n2)n[nH]1 [Gandotinib]	3.6	5.9	3	6.9	2.2	4	4.8	0
CC(C)c1cc(-c2n[nH]c(=O)n2-c2ccc3c(ccn3C)c2)c(O)cc1O [Ganetespib]	8.5	17.1	11.2	21	7	9.9	15.2	12.8
CN(C)C1CCN(C(=O)c2ccc(NC(=O)Nc3ccc(-c4nc(N5CCOCC5)nc(N5CCOCC5)n4)cc3)cc2)CC1 [Gedatolisib]	9.5	14.8	6.1	9.8	9.4	7.5	12.6	10.6
COc1cc2ncnc(Nc3ccc(F)c(Cl)c3)c2cc1OCCCN1CCOCC1 [Gefitinib]	2.9	4.6	2.6	2.4	2.7	3	2.9	0
Nc1ccn([C@@H]2O[C@H](CO)[C@@H](O)C2(F)F)c(=O)n1 [Gemcitabine]	13.7	18.9	4.3	8.6	10.3	0	0	6.3
CCc1nc(C(N)=O)c(Nc2ccc(N3CCC(N4CCN(C)CC4)CC3)c(OC)c2)nc1NC1CCOCC1 [Gilteritinib]	2.7	2.8	3.7	5	1.9	1.8	0	1.7
CCN(CC)Cc1ccc2cc(COC(=O)Nc3ccc(C(=O)NO)cc3)ccc2c1 [Givinostat]	4.9	6.6	4.3	5.2	5.8	2.2	2	5.6
CN1CC[C@@H](NC(=O)Nc2ccc(C#N)cc2)C[C@@H]1c1nc2ccccc2[nH]1 [Glasdegib]	0	0	0	0	0	0	0	0
COCCNCc1ccc(-c2cc3nccc(Oc4ccc(NC(=S)NC(=O)Cc5ccc(F)cc5)cc4F)c3s2)nc1 [Glesatinib]	0	0	0.4	0	0	0	0	0
CN1CCN(C2CCN(C(=O)Nc3cc(Oc4ccc(NC(=O)C5(C(=O)Nc6ccc(F)cc6)CC5)c(F)c4)ccn3)CC2)CC1 [Golvatinib]	0	0	1.5	0	0	0.5	2.3	0
CC(C)C[C@H](NC(=O)[C@@H](COC(C)(C)C)NC(=O)[C@H](Cc1ccc(O)cc1)NC(=O)[C@H](CO)NC(=O)[C@H](Cc1c[nH]c2ccccc12)NC(=O)[C@H](Cc1cnc[nH]1)NC(=O)[C@@H]1CCC(=O)N1)C(=O)N[C@@H](CCCNC(=N)N)C(=O)N1CCC[C@H]1C(=O)NNC(N)=O [Goserelin]	0	0	0	0	0	0	0	0
O=S(=O)(c1cccc2c(O)nccc12)N1CCCNCC1 [Hydroxyfasudil]	0	0	0	0	1.8	0	0	0
NC(=O)NO [Hydroxyurea]	0	0.1	0	6.8	2.2	0	2.4	0
COc1cc2c(cc1-c1c(C)noc1C)ncc1[nH]c(=O)n([C@H](C)c3ccccn3)c12 [I-BET151]	3.1	8.7	5.2	4.7	5	0	4.6	0.3
O=C(O)c1ccc(O)c2ncccc12 [IOX-1]	0.8	4.3	0.4	0.8	0.9	0	0	0
O=C(O)CNC(=O)c1c(O)c2ccccc2n(Cc2ccccc2)c1=O [IOX-2]	0	0	0	0	0	0.2	0	0
C=CC(=O)N1CCC[C@@H](n2nc(-c3ccc(Oc4ccccc4)cc3)c3c(N)ncnc32)C1 [Ibrutinib]	0	0	0.2	0	0	0	2.8	0
C#Cc1cccc(Nc2ncnc3cc4c(cc23)OCCOCCOCCO4)c1 [Icotinib]	0.1	0	0.4	0.1	0.9	0.1	0	0
CC(=O)[C@]1(O)Cc2c(O)c3c(c(O)c2[C@@H](O[C@H]2C[C@H](N)[C@H](O)[C@H](C)O2)C1)C(=O)c1ccccc1C3=O [Idarubicin]	8.4	15.4	8.4	10.9	8.1	4.8	5.4	9.7
COc1cc(C(=O)O)ccc1NC(=O)[C@@H]1N[C@@H](CC(C)(C)C)[C@](C#N)(c2ccc(Cl)cc2F)[C@H]1c1cccc(Cl)c1F [Idasanutlin]	0	22.7	3.7	19.7	0.3	0	3.4	0
